Reference: US20080107661A1, “MUC1 and ABL” (Dana-Farber Cancer Institute, Inc., priority 2006, published 2008)

How the values were obtained:
Assay type in all cases: cell-based, human
[1] = test system: c-Abl; assay: Nuclear and cytosolic c-Abl in ZR-75-1/vector and ZR-75-1/MUC1siRNA cells after CDDP (fractionation, immunoblot)
From the text: Cell culture. Human HeLa cervical cancer cells, HCT116/vector (HCT116 colorectal carcinoma cells stably transfected with an empty vector), HCT116/MUC1 (HCT116 colorectal carcinoma cells stably transfected with an expression vector encoding a MUC1 polypeptide), HCT116/MUC1(Y46F) (HCT116 colorectal carcinoma cells stably transfected with an expression vector encoding a mutant MUC1 polypeptide containing an amino acid substitution at position 46 changing a tyrosine (Y) to phenylalanine (F)) colon cancer cells (Ren et al., (2002) J. Biol. Chem. 277: 17616-17622) and 293 cells were cultured in Dulbecco's modified medium with 10% heat-inactivated fetal bovine serum, 100 units/ml penicillin, 100 μg/ml streptomycin and 2 mM L-glutamine. Human ZR-75-1/vector (ZR-75-1 breast cancer cells stably transfected with an empty vector) and ZR-75-1/MUC1siRNA (ZR-75-1 breast cancer cells stably transfected with an expression vector encoding an siRNA specific for MUC1) breast cancer cells (Ren et al., (2004) Cancer Cell 5:163-175) were grown in RPMI1640 medium containing 10% heat-inactivated fetal bovine serum and antibiotics. Cells were treated with 1 μM adriamycin (ADR; Calbiochem), 100 μM cisplatin (CDDP; Sigma) or 10 μM STI571 (Gleevec; Novartis, Basel, Switzerland).
Subcellular fractionation. Nuclear fractions were prepared as described (Kharbanda et al., (1996) Cancer Res. 56:3617-3621). Cytosolic fractions were prepared as described (Hill et al., (2004) EMBO J. 23:2134-2145). Cell membrane fractions were prepared with the Plasma Membrane Extraction Kit (BioVision Research Products, Mountain View, Calif.). Mitochondria were purified as described (Ren et al., (2004) Cancer Cell 5:163-175; Ren et al., (2006) Oncogene 25:20-31).
Immunoprecipitations and immunoblot analysis. Cell lysates were prepared as described (Kharbanda et al., (1995) Nature 376:785-788); Yoshida et al., (2005) Nat. Cell Biol. 7:278-285). […] Intensity of the signals was determined by densitometric scanning. Statistical significance was determined by the Student's t-test.

[2] = test system: c-Abl; assay: Analysis of c-Abl kinase activity (anti-c-Abl immunoprecipitates, Crk(120-225), [γ-32P]ATP); conditions: HCT116 cells; CDDP, 1 hour
Description: Analysis of c-Abl kinase activity. Nuclear lysates were immunoprecipitated with anti-c-Abl (K-12) antibodies as described (Kharbanda et al., (1997) Nature 386:732-735). The precipitates were resuspended in kinase buffer (20 mM HEPES, pH 7.4, 10 mM MgCl2) containing [γ-^32P]ATP, GST-Crk(120-225) for 20 minutes at 30° C. The reaction products were analyzed by SDS-PAGE and autoradiography.

[3] = test system: MUC1-C; assay: Nuclear MUC1-C levels in HCT116/MUC1 cells after CDDP (immunoblot, densitometric scanning); conditions: CDDP, 0, 1, 2 and 4 hours, over untreated cells
Description: Subcellular fractionation. Nuclear fractions were prepared as described (Kharbanda et al., (1996) Cancer Res. 56:3617-3621). Cytosolic fractions were prepared as described (Hill et al., (2004) EMBO J. 23:2134-2145). Cell membrane fractions were prepared with the Plasma Membrane Extraction Kit (BioVision Research Products, Mountain View, Calif.). Mitochondria were purified as described (Ren et al., (2004) Cancer Cell 5:163-175; Ren et al., (2006) Oncogene 25:20-31). Immunoprecipitations and immunoblot analysis. Cell lysates were prepared as described (Kharbanda et al., (1995) Nature 376:785-788); Yoshida et al., (2005) Nat. Cell Biol. 7:278-285). Soluble proteins were incubated with anti-MUC1-N (Kufe et al., (1984) Hybridoma 3:223-232), anti-MUC1-C (Ab5; Neomarker, Montreal, Quebec), anti-Flag (Sigma, St. Louis, Mo.), anti-c-Abl (Ab3; Oncogene, San Diego, Calif.) or anti-14-3-3 (Abcam Inc., Cambridge, Mass.) antibodies for 2 hours at 4° C., followed by precipitation with protein G-Sepharose beads for 1 hour. […] Intensity of the signals was determined by densitometric scanning. Statistical significance was determined by the Student's t-test.

[NH2][Pt]([NH2])([Cl])[Cl] [CDDP, cisplatin]
cytosolic c-Abl ([1]; ZR-75-1/MUC1siRNA cells): decreased | increase of nuclear targeting of c-Abl ([1]; ZR-75-1/MUC1siRNA cells silenced for MUC1, 2 and 4 hours): about 6 fold | nuclear targeting of c-Abl ([1]; ZR-75-1/vector cells, 2 and 4 hours): no detectable targeting of c-Abl to the nucleus | c-Abl kinase activity [2]: induction of c-Abl activity | increase in nuclear MUC1-C levels [3]: two-fold
